The values that follow come from patent publication US11376264B2, “Use of bromodomain-containing protein 9 antagonists in combination with vitamin D receptor agonists in diabetes treatment” (Salk Institute for Biological Studies, priority 2017, dated 2022).

SMILES strings stand for the structures. Entries after “also recorded” stand apart in the source; their conditions may differ.

For one test, the system named is db/db (B6) mice. The test is described as follows: db/db (B6) mouse T2D model treatment. The format is in vivo. Particulars: for fasted blood glucose levels: Cal 60 μg/kg, iBRD9 10 mg/kg i.p. 3 times a week, 9 weeks; for serum insulin levels: FIG. 10D, fasting / random fed. On the procedure: The following mice strains were from Jackson: VDR KO (B6.129S4-Vdrtm1Mbd/J), B6 db (B6.BKS(D)-Leprdb/J), BKS db (BKS.Cg-Dock7m+/+ Leprdb/J), C57BL6/J. Animals were maintained in a specific pathogen-free animal facility on a 12-hr light-dark cycle at an ambient temperature of 23° C. Water and food were provided ad lib. All animal experiments used age-matched male mice. VDR KO and control littermate mice were maintained on a VDR KO rescue diet containing 21% calcium, 0.67% phosphorus, and 20% lactose supplemented with 4.4 U vitamin D per gram diet.
db/db (B6) mice were grouped based on glucose levels at the age of 5 weeks. Treatments were started from 6 weeks and animals were treated with vehicle (30% 2-Hydroxypropyl-β Cyclodextrin, Sigma, H-107) or drugs 3 times a week. […] For db/db (BKS) mice, treatment started from age of 10 weeks.
(§1) Intraperitoneal GTTs were performed on overnight fasted mice. Blood glucose values were assessed before and at 0, 15, 30, 60, and 120 min after i.p. administration of 0.5 g/kg of glucose. Serum insulin levels were assessed before and at 0, 15, and 60 min after the i.p. administration of glucose using a rat/mouse Insulin ELISA kit (Millipore). IP-ITT assays were performed on mice after a 6 hr fast with an injection of 2 U/kg of insulin (Humalin R, Eli Lilly).
ELISA were performed per manufacturer's instructions: mouse insulin (Millipore, EZRMI-13K), mouse proinsulin (Mercodia, NC9088881).

For another test, the system named is INS1 cells. The test is described as follows: H3K27Ac ChIP-seq enhancer landscape in IL1β-treated INS1 cells. It is filed as cell-based, rat. The note with it: 1 hour IL1β. From the text:
The experimental procedure for ChIP was as previously described (Barish et al., 2010, Genes Dev 24:2760-5). Briefly, after fixation, nuclei from were isolated, lysed, and sheared with a Diagenode Bioruptor to yield DNA fragment sizes of 200-1,000 bp followed by immunoprecipitation.
The procedure was as previously described (Barish et al., 2010, Genes Dev 24:2760-5). Briefly, short DNA reads were aligned against the mouse mm9 or rat rn4 reference genome using the Illumina CASAVA v1.8.2. Reads were aligned using the Bowtie aligner, allowing up to two mismatches in the read. Only tags that map uniquely to the genome were considered for further analysis. Subsequent peak calling and motif analysis were conducted using HOMER, a software suite for ChIP-seq analysis. The methods for HOMER, described below, have been implemented and are available at http://homer.ucsd.edu. One tag from each unique position was considered to eliminate peaks resulting from clonal amplification of fragments during the ChIP-seq protocol. Peaks were identified by searching for clusters of tags within a sliding 200 bp window, requiring adjacent clusters to be at least 1 kb away from each other. The threshold for the number of tags that determine a valid peak was selected for an FDR <0.001, as empirically determined by repeating the peak finding procedure using randomized tag positions. […]

Test [1] relates to low-dose STZ-treated mice. Briefly: Low-dose STZ β cell damage mouse model. Particulars: for glucose control (overnight fasted glucose): i.p. 3 times a week; for serum insulin levels: mouse, in vivo. It is filed as in vivo. On the procedure: 8 week old C57B16 male mice were injected intraperitoneally with streptozotocin (Sigma, S0130) at the dose of 50 mg/kg every day for 5 consecutive days.
For immunohistochemistry, FFPE tissues sections were deparaffinized and antigen retrieval performed using Vector Antigen Unmasking buffer (H3301). VectaStain ABC kit and ImmPACT DAB substrate (Vector Lab) were used to develop signal. Antibodies used: Pro-insulin (R&D, MAB13361, 1:100), insulin (Abcam, ab7842, 1:100), MAFA (Novus, NB400-137, 1:50), NKX6-1 (Cell Signaling, 54551, 1:100), and Glucagon (Abcam, ab82270, 1:100). DAPI-containing mounting media ([…] mounting medium for fluorescence) was used for nuclear staining. Immunostaining was visualized by ZEISS 780 confocal microscopy analysis.
as §1

As for `C=C1/C(=C\C=C2/CCC[C@]3(C)[C@@H]([C@H](C)/C=C/[C@@H](O)C4CC4)CC[C@@H]23)C[C@@H](O)C[C@@H]1O` [Cal, calcipotriol], in the test on db/db (B6) mice, the “fasted blood glucose levels” value was “modest improvements; also recorded: mildly reduces” and the serum insulin levels entry is given as “higher fasting serum insulin levels”. In the test on db/db (B6) mice (RNA-seq of islets), the “cytokine and chemokine genes in islets” value is on record as “downregulated”; the “key transcription factors (Nkx6-1, Nr4a1) in islets” value is listed as “upregulation”. Also, the “Cyp24A1 expression in islets and intestine” value with db/db (B6) mice (VDR target gene) is “marked induction”. In the test with db/db (B6) mice (after 9 weeks treatment), the “glucose tolerance (IPGTT)” value is recorded as “improved glucose clearance; also recorded: better glucose tolerance”. In addition, in the test on db/db (B6) mice (qPCR), the “Ins2 mRNA levels in islets” value was “trended upwards; also recorded: increased expression of Ins2” and the “expression of gluconeogenesis genes (Pepck, Fbp1, G6pase) in liver” value is “reduced expression; also recorded: repressed”. In addition, the “reversal of IL1β-induced changes in H3K27 acetylation” value in the test with INS1 cells is reported as “partially reverse the impact of IL1β”. Further, in test [1], the “glucose control (overnight fasted glucose)” value is “limited to no benefit” and the serum insulin levels entry was “increased levels of insulin”.

Take `CCn1cc(-c2cccc(C(F)(F)F)c2)c2sc(C(=N)NC3CCS(=O)(=O)CC3)cc2c1=O` [iBRD9]: in the test on db/db (B6) mice, the “fasted blood glucose levels” value is on record as “modest improvements” and the serum insulin levels entry was “higher fasting serum insulin levels”. The “reversal of IL1β-induced changes in H3K27 acetylation” value with INS1 cells is listed as “partially reverse the impact of IL1β”. Further, in test [1], the “glucose control (overnight fasted glucose)” value is “limited to no benefit” and the serum insulin levels entry is on record as “increased levels of insulin”.
